Assay [1] addresses T1, CDK6/human cyclin D3 (Homo sapiens, UniProt Q00534).
T1 construct: purchased Carna 04-107
Nature of the assay: Determination of activity of CDK6 kinase (Caliper mobility shift). Format: biochemical. As to conditions: 300 μM ATP, 2 nM enzyme, 25° C. 3 hours; read-out: CDK6/CycD3 IC50. As for the experimental part: The activity of CDK6 kinase in vitro was tested by the following method: • 2 nM CDK6/human cyclin D3 (Carna, No. 04-107) • Final buffer: • 100 mM 4-hydroxyethyl piperazine ethanesulfonic acid, pH 7.5; • 0.1% bovine serum albumin; • 0.01% Triton X-100; • 1 mM dithiothreitol; • 5 mM magnesium chloride; • 10 μM sodium orthovanadate; • 10 μM sodium P-glycerophosphate; • 300 μM ATP; • 1% DMSO (from the compound to be tested); • Substrate peptide: Dyrktide;
5 μL of buffer, 0.1 μL of compound to be tested (DMSO, 100 times the highest concentration) and 5 μL of substrate peptide buffer were added to a 384-well plate. The reaction was terminated with EDTA after culturing at 25° C. for 3 hours. Electrophoresis reading was started (Caliper LabChip® 3000 Drug Discovery System, blue laser (480 nm) for excitation, green CCD (520 nm) for detection of CCD2).

The test system of assay [2] is MDA-MB-468 cells. The assay can be described thus: Determination of activity of MDA-MB-468 cells (CellTiter-Glo). Format: cell-based. As to conditions: Homo sapiens, MDA-MB-468, 120 h, 5 days culture. As for the experimental part: • MDA-MB-468 (ATCC No. HTB-132); • RPMI 1640 (Invitrogen No. 22400089); • FBS (Hyclone No. SV30087.03); • Pen Strep (Hyclone No. SV30010); • CellTiter-Glo (Promega No. G7573); • Medium: 89% RPMI 1640, 10% FBS and 1% Pen Strep;
300 MDA-MB-468 cells and 50 μL of medium were inoculated in a plate with 100 μL of PBS buffer added, which was then cultured for 24 hours at 37° C./5% CO2, then 250 nL of samples, which were taken from the compounds to be tested at ten test points and diluted with four times DMSO, were added to the plate wells and cultured for 5 days at 37° C./5% CO2, then 25 μL of CellTiter-Glo was added to each plate well, followed by centrifugation by rotating (1000 rpm) for 15 seconds, and vibration mixing (400 rpm) for 10 minutes, the microplate reader Envision was started to read.
(In ATP-based viability assays light output follows the ATP content of the culture.)

For assay [3], the target named is CDK2/human cyclin E (Homo sapiens, UniProt P24941). Nature of the assay: Determination of activity of CDK2 kinase (Caliper mobility shift). The class given is biochemical. As to conditions: 10 μM ATP, 0.1 nM enzyme, 25° C. 6 hours; read-out: CDK2/CycE IC50. As for the experimental part:
The activity of CDK2 kinase in vitro was tested by the following method: • Final buffer: • 100 mM 4-hydroxyethyl piperazine ethanesulfonic acid, pH 7.5; • 0.1% bovine serum albumin; • 0.01% Triton X-100; • 1 mM dithiothreitol; • 5 mM magnesium chloride; • 10 μM sodium orthovanadate; • 10 μM sodium P-glycerophosphate; • 10 μM ATP; • 1% DMSO (from the compound to be tested); • Substrate Peptide: 1 μM FAM-[…]-OH, wherein FAM is 5-carboxyfluorescein; • 0.1 nM CDK2/human cyclin E.
(§1) 5 μL of buffer, 0.1 μL of compound to be tested (DMSO, 100 times the highest concentration) and 5 μL of substrate peptide buffer were added to a 384-well plate. The reaction was terminated with EDTA after culturing at 25° C. for 6 hours. Electrophoresis reading was started (Caliper LabChip® 3000 Drug Discovery System, blue laser (480 nm) for excitation, green CCD (520 nm) for detection of CCD2).

Assay [4] addresses CDK4/human cyclin D1 (Homo sapiens, UniProt P11802). Nature of the assay: Determination of activity of CDK4 kinase (Caliper mobility shift). The class given is biochemical. As to conditions: 25 μM ATP, 5 nM enzyme, 25° C. 6 hours; read-out: CDK4/CycD1 IC50. As for the experimental part: The activity of CDK4 kinase in vitro was tested by the following method: • Final buffer: • 100 mM 4-hydroxyethyl piperazine ethanesulfonic acid, pH 7.5; • 0.1% bovine serum albumin; • 0.01% Triton X-100; • 1 mM dithiothreitol; • 5 mM magnesium chloride; • 10 μM sodium orthovanadate; • 10 μM sodium P-glycerophosphate; • 25 μM ATP; • 1% DMSO (from the compound to be tested); • Substrate Peptide: 1 μM FAM-[…]-NH2 segment, wherein FAM is 5-carboxyfluorescein; • 5 nM CDK4/human cyclin D1.
as §1

The values that follow come from patent publication US12673935B2, “Pyrimidine derivative, and preparation method therefor and use thereof” (CGENETECH (SUZHOU, CHINA) CO., LTD., priority 2020, dated 2026).

CDK4/human cyclin D1, sequence (P11802 whole entry): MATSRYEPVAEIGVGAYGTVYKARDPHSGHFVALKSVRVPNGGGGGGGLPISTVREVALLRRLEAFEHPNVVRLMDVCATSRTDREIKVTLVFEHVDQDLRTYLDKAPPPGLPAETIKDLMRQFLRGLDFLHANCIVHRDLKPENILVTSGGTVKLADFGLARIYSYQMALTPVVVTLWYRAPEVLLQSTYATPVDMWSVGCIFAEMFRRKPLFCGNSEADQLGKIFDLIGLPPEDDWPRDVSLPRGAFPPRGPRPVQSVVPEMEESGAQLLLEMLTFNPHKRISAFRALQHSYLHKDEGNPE
CDK4/human cyclin D1, sequence (P24385 whole entry partner): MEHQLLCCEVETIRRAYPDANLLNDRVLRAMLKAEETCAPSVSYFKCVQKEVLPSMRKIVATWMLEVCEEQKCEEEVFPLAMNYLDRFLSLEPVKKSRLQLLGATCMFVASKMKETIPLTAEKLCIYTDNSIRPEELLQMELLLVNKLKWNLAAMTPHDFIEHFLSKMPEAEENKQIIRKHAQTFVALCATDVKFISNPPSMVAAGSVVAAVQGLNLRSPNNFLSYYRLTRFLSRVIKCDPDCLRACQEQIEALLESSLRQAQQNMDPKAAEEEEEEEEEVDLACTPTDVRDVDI
T1 sequence (Q00534 whole entry): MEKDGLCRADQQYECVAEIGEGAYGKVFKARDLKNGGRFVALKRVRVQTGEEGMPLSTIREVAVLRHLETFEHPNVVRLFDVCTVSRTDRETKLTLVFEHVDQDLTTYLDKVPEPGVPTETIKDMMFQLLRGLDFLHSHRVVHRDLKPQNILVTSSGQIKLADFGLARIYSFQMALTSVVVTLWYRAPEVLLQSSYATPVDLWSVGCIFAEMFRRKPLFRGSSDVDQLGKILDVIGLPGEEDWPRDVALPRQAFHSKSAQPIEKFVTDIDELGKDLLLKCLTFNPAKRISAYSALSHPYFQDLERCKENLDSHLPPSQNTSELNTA
T1 sequence (P30281 whole entry partner): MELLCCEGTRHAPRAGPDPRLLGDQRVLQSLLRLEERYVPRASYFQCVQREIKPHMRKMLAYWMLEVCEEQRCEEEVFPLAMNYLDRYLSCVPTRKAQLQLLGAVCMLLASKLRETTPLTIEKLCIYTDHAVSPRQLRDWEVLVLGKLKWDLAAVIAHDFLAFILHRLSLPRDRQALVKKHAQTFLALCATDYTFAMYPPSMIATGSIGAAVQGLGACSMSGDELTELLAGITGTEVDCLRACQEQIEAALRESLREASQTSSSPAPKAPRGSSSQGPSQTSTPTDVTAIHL

In the case of `Cc1nc2c(F)cc(-c3nc(Nc4ccc(N5CCC(N(C)CCO)CC5)cn4)ncc3F)cc2n1C(C)C` [Compound 1963], the IC50 in assay [1] is 1 nM; in assay [2] it was 459 nM; in assay [3], 101 nM; in assay [4] it was 1.78 nM.

With `Cc1nc2c(F)cc(-c3nc(Nc4ccc(CN5CCC(N(C)CCO)CC5)cn4)ncc3F)cc2n1C(C)C` [Compound 1964], the IC50 in assay [1] is 8.6 nM; in assay [2], 126 nM; in assay [3] it was 313 nM; in assay [4] it was 1.4 nM.

As to `CNC1CCN(c2ccc(Nc3ncc(F)c(-c4cc(F)c5nc(C)n(C(C)C)c5c4)n3)nc2)CC1` [Compound 1967], the IC50 in assay [1] came to 1.23 nM; in assay [2], 682 nM; in assay [3] it was 122 nM; in assay [4], 0.17 nM.

Take `CC(C)n1c(CF)nc2c(F)cc(-c3nc(Nc4ccc(CN5CCC(N(C)C)CC5)cn4)ncc3F)cc21` [Compound 1975]: the IC50 is 6.7 nM in assay [1], 457 nM in assay [2], 8.2 nM in assay [3] and 1.55 nM in assay [4].

As to `CCN1CCN(Cc2ccc(Nc3ncc(F)c(-c4cc(F)c5nc(CF)n(C(C)C)c5c4)n3)nc2)CC1` [Compound 1978], the IC50 in assay [1] was 9.8 nM; in assay [2] it was 1150 nM; in assay [3], 459 nM; in assay [4], 2.6 nM.

As for `Cc1nc2c(F)cc(-c3nc(Nc4ccc(CN5CCN(CCO)CC5)cn4)ncc3F)cc2n1C(C)C` [Compound 1979], the IC50 amounted to 4.1 nM in assay [1], 1390 nM in assay [2], 163 nM in assay [3] and 0.83 nM in assay [4].

As to `CC(C)n1c(CF)nc2c(F)cc(-c3nc(Nc4ccc(N5CCC(N(C)C)CC5)cn4)ncc3F)cc21` [Compound 1984], the IC50 in assay [1] stood at 3.9 nM; in assay [2], 344 nM; in assay [3], 231 nM; in assay [4] it was 1.25 nM.

Turning to `CCN1CCN(c2ccc(Nc3ncc(F)c(-c4cc(F)c5nc(CF)n(C(C)C)c5c4)n3)nc2)CC1` [Compound 1985], the IC50 stood at 3 nM in assay [1], 454 nM in assay [2], 128 nM in assay [3] and 0.98 nM in assay [4].

With `Cc1nc2c(F)cc(-c3nc(Nc4ccc(N5CCN(CCO)CC5)cn4)ncc3F)cc2n1C(C)C` [Compound 1986], the IC50 came to 1.8 nM in assay [1], 573 nM in assay [2], 95 nM in assay [3] and 1.2 nM in assay [4].

With `Cc1nc2c(F)cc(-c3nc(Nc4ccc(N5CCN(CC(C)O)CC5)cn4)ncc3F)cc2n1C(C)C` (centres unmarked) [Compound 1987], the IC50 is 5.9 nM in assay [1], 345 nM in assay [2], 355 nM in assay [3] and 1.2 nM in assay [4].

As for `COCCN1CCN(c2ccc(Nc3ncc(F)c(-c4cc(F)c5nc(C)n(C(C)C)c5c4)n3)nc2)CC1` [Compound 1988], the IC50 was determined as 1.1 nM in assay [1], 529 nM in assay [2], 92 nM in assay [3] and 0.75 nM in assay [4].

`CC(C)n1c(CF)nc2c(F)cc(-c3nc(Nc4ccc(N5CCC(N(C)CCO)CC5)cn4)ncc3F)cc21` [Compound 1990]: the IC50 in assay [1] came to 4.8 nM; in assay [2], 276 nM; in assay [3], 5.3 nM; in assay [4], 1.54 nM.

With `CCN1CCN(Cc2ccc(Nc3ncc(F)c(-c4cc(F)c5nc(CO)n(C(C)C)c5c4)n3)nc2)CC1` [Compound 1994], the IC50 in assay [1] turned out to be 8.7 nM; in assay [2], 485 nM; in assay [3], 82 nM; in assay [4], 0.67 nM.

As for `CC(C)n1c(CF)nc2c(F)cc(-c3nc(Nc4ccc(CN5CCC(N(C)CCO)CC5)cn4)ncc3F)cc21` [Compound 1995], the IC50 in assay [1] amounted to 10.1 nM; in assay [2], 186 nM; in assay [3], 6.2 nM; in assay [4], 1.75 nM.
